The text below walks through data of US8980911B2, “Heterocyclic compounds as protein kinase inhibitors” (Daiichi Sankyo Company, Limited, priority 2011, dated 2015).

SMILES strings stand for the structures. A value given as a limit tells only on which side of the number the result lay.

The IC50 is the concentration that gives 50% inhibition.

What all share (type): biochemical
The target in assay [1] is T1, JAK2 (Homo sapiens, UniProt O60674).
T1 construct: All enzymes only contain the catalytic domain; His (N); purchased Carna Bioscience, Inc; host or cells: baculovirus expression system
T1 sequence (O60674 849-1124 limits assumed): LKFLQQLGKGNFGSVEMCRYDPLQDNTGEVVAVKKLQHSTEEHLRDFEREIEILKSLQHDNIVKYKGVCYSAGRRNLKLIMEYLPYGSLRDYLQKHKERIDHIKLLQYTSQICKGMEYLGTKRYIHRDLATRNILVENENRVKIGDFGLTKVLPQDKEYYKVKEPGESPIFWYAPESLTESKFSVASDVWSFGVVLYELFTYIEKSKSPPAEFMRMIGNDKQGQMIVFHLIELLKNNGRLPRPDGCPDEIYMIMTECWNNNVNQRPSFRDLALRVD
Nature of the assay: In vitro enzyme assay (cell-free HTRF kinase assay), JAK2. The settings on record: catalytic domain, His-tag; ATP 10 μM, SRCtide 25 nM, reaction 30 min. The protocol: (§1) Kinase buffer [50 mM HEPES (pH 7.5), 1 mM EGTA, 10 mM MgCl2, 2 mM DTT and 0.01% Tween-20) was prepared and dilutions of a compound of formula (I) and other reagents were subsequently made in it. Two times concentrated compound of formula (I) solution: A compound of formula (I) was diluted to 100-fold final concentration in DMSO, followed by 50-fold dilution with Kinase buffer (1% DMSO final concentration). Four times concentrated Substrate/ATP mix solution: Biotin-SRCtide and ATP were diluted to 4-fold final concentration in Kinase buffer. Biotin-SRCtide solution (purchased from Anaspec) was mixed with ATP solution (1:1). Four times concentrated Enzyme solution: JAK1 or JAK2 or JAK3 or TYK2 enzyme [Human baculo virus expressed JAK1, JAK2, JAK3 and TYK2 were purchased from Carna Bioscience, Inc. All enzymes only contain the catalytic domain. JAK1 (aa 850-1154) and TYK2 (aa 871-1187) are expressed with an N-terminally fused GST-tag, and JAK2 and JAK3 with an N-terminally fused His-tag] was diluted to 4-fold final concentration in Kinase buffer and always kept on ice. Detection buffer: LANCE detection buffer (10 times concentrated) was diluted 10-fold in H2O. Four times concentrated stop solution: EDTA was diluted to a concentration of 40 mM in detection buffer. Four times concentrated ULight/Eu-antibody (from Perkin Elmer) mix solution: ULight-Streptavidin was diluted to a concentration of 100 nM (25 ng/mL final concentrations) and Eu-anti-phospho-Tyrosine (PT66) (from Perkin Elmer) was diluted to a concentration of 8 nM (2 ng/mL final concentration) in detection buffer.
(§2) Cell-free in vitro kinase assay was performed in 384 well plates. Two times concentrated compound solution (5 μL) was pipetted into a HTS 384SV Small Volume Plate. Four times concentrated Substrate/ATP mix (2.5 μL) solution was added along with 4 times concentrated Enzyme solution (2.5 μL). Plate was covered with TopSeal-A and incubated at room temperature for indicated time (Table 3). Four times concentrated Stop solution (5 μL, 10 mM final concentration) was added and incubated for 5 minutes at room temperature. Four times concentrated ULight/Eu-antibody mix solution (5 μL) was added and again plate was covered with TopSeal and incubated overnight at 4° C. TopSeal was removed and HTRF signal was measured at 615 nm and […] (excitation at 320 or 340 nm) on Tecan M1000 Multi mode plate reader. Ratio (665 nm/615 nm)×10^4 was calculated and IC50 values were deduced from Graph-pad prism 4.2.
For orientation: TR-FRET usually uses a lanthanide donor and a delayed reading to cut background.

In assay [2] the target is T2, JAK1 (Homo sapiens, UniProt P23458).
T2 construct: JAK1 (aa 850-1154) and TYK2 (aa 871-1187) are expressed with an N-terminally fused GST-tag; GST (N); purchased Carna Bioscience, Inc; host or cells: baculovirus expression system
T2 sequence (P23458 850-1154): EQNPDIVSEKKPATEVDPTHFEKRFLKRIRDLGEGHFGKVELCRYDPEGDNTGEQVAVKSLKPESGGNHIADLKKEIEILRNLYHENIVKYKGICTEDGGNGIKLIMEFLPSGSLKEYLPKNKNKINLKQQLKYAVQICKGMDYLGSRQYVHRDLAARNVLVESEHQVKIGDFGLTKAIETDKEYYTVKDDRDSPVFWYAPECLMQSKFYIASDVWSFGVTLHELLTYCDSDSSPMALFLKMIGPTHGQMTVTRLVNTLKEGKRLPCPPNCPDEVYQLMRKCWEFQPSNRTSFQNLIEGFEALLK
Nature of the assay: In vitro enzyme assay (cell-free HTRF kinase assay), JAK1. The settings on record: catalytic domain aa 850-1154, GST-tag; ATP 60 μM, SRCtide 400 nM, reaction 120 min. The protocol:
as §1, §2

In assay [3] the target is T3, JAK3 (Homo sapiens, UniProt P52333).
T3 construct: All enzymes only contain the catalytic domain; His (N); purchased Carna Bioscience, Inc; host or cells: baculovirus expression system
T3 sequence (P52333 822-1111 limits assumed): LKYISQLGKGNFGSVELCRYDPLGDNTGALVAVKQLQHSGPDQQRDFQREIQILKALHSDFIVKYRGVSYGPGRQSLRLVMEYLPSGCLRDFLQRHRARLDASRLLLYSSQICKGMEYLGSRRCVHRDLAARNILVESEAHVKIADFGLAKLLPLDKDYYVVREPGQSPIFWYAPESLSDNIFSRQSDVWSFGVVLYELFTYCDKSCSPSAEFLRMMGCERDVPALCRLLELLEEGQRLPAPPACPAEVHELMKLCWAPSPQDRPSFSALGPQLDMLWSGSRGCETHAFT
Nature of the assay: In vitro enzyme assay (cell-free HTRF kinase assay), JAK3. The settings on record: catalytic domain, His-tag; ATP 3 μM, SRCtide 100 nM, reaction 30 min. The protocol:
as §1, §2

As for `Nc1cc(Cl)c(C(=O)c2c[nH]c3cnccc23)c(Cl)c1` [Compound No. 3, (4-Amino-2,6-dichlorophenyl)(1H-pyrrolo[2,3-c]pyridin-3-yl)methanone], the IC50 in assay [1] is below 500 nM; in assay [2], below 1000 nM; in assay [3], below 1000 nM.

For the compound `O=C(c1c(Cl)cccc1Cl)c1c[nH]c2c(NC(=O)C3CC3)nccc12` [Compound No. 5, N-[3-(2,6-Dichlorobenzoyl)-1H-pyrrolo[2,3-c]pyridin-7-yl]cyclopropanecarboxamide], the IC50 in assay [1], in assay [2] and in assay [3] was below 500 nM throughout.

For `N#Cc1cc(Cl)c(C(=O)c2c[nH]c3cnccc23)c(Cl)c1` [Compound No. 6, 3,5-Dichloro-4-(1H-pyrrolo[2,3-c]pyridin-3-ylcarbonyl)benzonitrile], the half-maximal inhibitory concentration (IC50) in assay [1], in assay [2] and in assay [3] was below 500 nM in each case.

Regarding `O=C(c1c(F)cccc1Cl)c1c[nH]c2c(NC(=O)C3CC3)nccc12` [Compound No. 11, N-[3-(2-Chloro-6-fluorobenzoyl)-1H-pyrrolo[2,3-c]pyridin-7-yl]cyclopropanecarboxamide], the IC50 is below 100 nM in assay [1], below 500 nM in assay [2] and below 100 nM in assay [3].

As to `CNC(=O)c1cc(Cl)c(C(=O)c2c[nH]c3c(NC(=O)C4CC4)nccc23)c(Cl)c1` [Compound No. 12, 3,5-Dichloro-4-({7-[(cyclopropylcarbonyl)amino]-1H-pyrrolo[2,3-c]pyridin-3-yl}carbonyl)-N-methylbenzamide], the half-maximal inhibitory concentration (IC50) in assay [1] was below 500 nM; in assay [2], below 500 nM; in assay [3] it was below 100 nM.

For `CCNC(=O)c1cc(Cl)c(C(=O)c2c[nH]c3c(NC(=O)C4CC4)nccc23)c(Cl)c1` [Compound No. 13, 3,5-Dichloro-4-({7-[(cyclopropylcarbonyl)amino]-1H-pyrrolo[2,3-c]pyridin-3-yl}carbonyl)-N-ethylbenzamide], the figures for the concentration for half-maximal inhibition (IC50) in assay [1], in assay [2] and in assay [3] were below 500 nM, below 1000 nM and below 500 nM, respectively.

As to `COCCNC(=O)c1cc(Cl)c(C(=O)c2c[nH]c3c(NC(=O)C4CC4)nccc23)c(Cl)c1` [Compound No. 16, 3,5-Dichloro-4-({7-[(cyclopropylcarbonyl)amino]-1H-pyrrolo[2,3-c]pyridin-3-yl}carbonyl)-N-(2-methoxyethyl)benzamide], the IC50 in assay [1] is below 500 nM; in assay [2] it was below 1000 nM; in assay [3], below 500 nM.

Consider `O=C(c1c(Cl)cccc1Cl)c1c[nH]c2cnc(NC(=O)C3CC3)cc12` [Compound No. 18, N-[3-(2,6-Dichlorobenzoyl)-1H-pyrrolo[2,3-c]pyridin-5-yl]cyclopropanecarboxamide], for which the IC50 in assay [1] is below 100 nM; in assay [2], below 1000 nM; in assay [3], below 1000 nM.

As to `O=C(c1c(F)cccc1Cl)c1c[nH]c2cnc(NC(=O)C3CC3)cc12` [Compound No. 19, N-[3-(2-Chloro-6-fluorobenzoyl)-1H-pyrrolo[2,3-c]pyridin-5-yl]cyclopropanecarboxamide], the results for the IC50 in assay [1], in assay [2] and in assay [3] were below 50 nM, below 500 nM and below 500 nM, respectively.

On to `O=C(c1c(Cl)cc(Br)cc1Cl)c1c[nH]c2c(NC(=O)C3CC3)nccc12` [Compound No. 22, N-[3-(4-Bromo-2,6-dichlorobenzoyl)-1H-pyrrolo[2,3-c]pyridin-7-yl]cyclopropanecarboxamide], for which the IC50 is below 1000 nM in assay [1], below 500 nM in assay [2] and below 500 nM in assay [3].

As to `Cc1noc(C)c1-c1cc(Cl)c(C(=O)c2c[nH]c3c(NC(=O)C4CC4)nccc23)c(Cl)c1` [Compound No. 23, N-{3-[2,6-Dichloro-4-(3,5-dimethyl-1,2-oxazol-4-yl)benzoyl]-1H-pyrrolo[2,3-c]pyridin-7-yl}cyclopropanecarboxamide], the 50% inhibitory concentration (IC50) was below 500 nM in assay [1], below 1000 nM in assay [2] and below 500 nM in assay [3].

For the compound `Nc1cc(Cl)c(C(=O)c2c[nH]c3c(NC(=O)C4CC4)nccc23)c(Cl)c1` [Compound No. 26, N-[3-(4-Amino-2,6-dichlorobenzoyl)-1H-pyrrolo[2,3-c]pyridin-7-yl]cyclopropanecarboxamide], the IC50 in assay [1] is below 500 nM; in assay [2], below 500 nM; in assay [3], below 100 nM.

In the case of `CC(=O)Nc1cc(Cl)c(C(=O)c2c[nH]c3c(NC(=O)C4CC4)nccc23)c(Cl)c1` [Compound No. 27, N-{3-[4-(Acetylamino)-2,6-dichlorobenzoyl]-1H-pyrrolo[2,3-c]pyridin-7-yl}cyclopropanecarboxamide], the IC50 in assay [1] is below 500 nM; in assay [2], below 1000 nM; in assay [3], below 100 nM.

Regarding `O=C(NCCOCCO)c1cc(Cl)c(C(=O)c2c[nH]c3c(NC(=O)C4CC4)nccc23)c(Cl)c1` [Compound No. 29, 3,5-Dichloro-4-({7-[(cyclopropylcarbonyl)amino]-1H-pyrrolo[2,3-c]pyridin-3-yl}carbonyl)-N-[2-(2-hydroxyethoxy)ethyl]benzamide], the concentration for half-maximal inhibition (IC50) was below 1000 nM in assay [1], below 1000 nM in assay [2] and below 500 nM in assay [3].

On to `O=C(NCCCO)c1cc(Cl)c(C(=O)c2c[nH]c3c(NC(=O)C4CC4)nccc23)c(Cl)c1` [Compound No. 30, 3,5-Dichloro-4-({7-[(cyclopropylcarbonyl)amino]-1H-pyrrolo[2,3-c]pyridin-3-yl}carbonyl)-N-(3-hydroxypropyl)benzamide], for which the 50% inhibitory concentration (IC50) in assay [1], in assay [2] and in assay [3] was below 500 nM throughout.

With `O=C(NCCCN1CCOCC1)c1cc(Cl)c(C(=O)c2c[nH]c3c(NC(=O)C4CC4)nccc23)c(Cl)c1` [Compound No. 31, 3,5-Dichloro-4-({7-[(cyclopropylcarbonyl)amino]-1H-pyrrolo[2,3-c]pyridin-3-yl}carbonyl)-N-[3-(morpholin-4-yl)propyl]benzamide], the results for the half-maximal inhibitory concentration (IC50) in assay [1], in assay [2] and in assay [3] were below 1000 nM, below 500 nM and below 500 nM, respectively.

With `O=C(NCC(O)CO)c1cc(Cl)c(C(=O)c2c[nH]c3c(NC(=O)C4CC4)nccc23)c(Cl)c1` (stereo not drawn) [Compound No. 32, 3,5-Dichloro-4-({7-[(cyclopropylcarbonyl)amino]-1H-pyrrolo[2,3-c]pyridin-3-yl}carbonyl)-N-(2,3-dihydroxypropyl)benzamide], the half-inhibitory concentration (IC50) in assay [1] was below 500 nM; in assay [2], below 500 nM; in assay [3], below 50 nM.

For the compound `CN(C)CCNC(=O)c1cc(Cl)c(C(=O)c2c[nH]c3c(NC(=O)C4CC4)nccc23)c(Cl)c1` [Compound No. 33, 3,5-Dichloro-4-({7-[(cyclopropylcarbonyl)amino]-1H-pyrrolo[2,3-c]pyridin-3-yl}carbonyl)-N-[2-(dimethylamino)ethyl]benzamide], the half-inhibitory concentration (IC50) in assay [1], in assay [2] and in assay [3] was below 100 nM each time.

`O=C(NCCN1CCCCC1)c1cc(Cl)c(C(=O)c2c[nH]c3c(NC(=O)C4CC4)nccc23)c(Cl)c1` [Compound No. 34, 3,5-Dichloro-4-({7-[(cyclopropylcarbonyl)amino]-1H-pyrrolo[2,3-c]pyridin-3-yl}carbonyl)-N[2-(piperidin-1-yl)ethyl]benzamide]: the IC50 in assay [1], in assay [2] and in assay [3] was below 500 nM each time.

Regarding `COC(=O)CNC(=O)c1cc(Cl)c(C(=O)c2c[nH]c3c(NC(=O)C4CC4)nccc23)c(Cl)c1` [Compound No. 35, Methyl N-[3,5-dichloro-4-({7-[(cyclopropylcarbonyl)amino]-1H-pyrrolo[2,3-c]pyridin-3-yl}carbonyl)benzoyl]glycinate], the IC50 in assay [1], in assay [2] and in assay [3] was below 500 nM each time.
